Experimental data: patent publication US20080131920A1, “Ion flux in biological processes, and methods related thereto” (priority 2005, published 2008)

How the values were obtained:
[1] = test system: Xenopus tail regeneration; conditions: compound in medium beginning immediately after tail amputation (stage 40-41)
[2] = test system: Sonic hedgehog (Shh), Nodal; experiment: Sidedness of Shh and Nodal expression in chick embryos (in ovo culture, in situ hybridization); conditions: in vivo
Text: We examined the effect of inhibiting H^+-V-ATPase activity on the expression of the early left-sided marker Sonic hedgehog (Shh). Inhibition of H^+-V-ATPase activity following treatment with concanamycin or DCCD specifically randomized the expression of Shh, as well as that of and the downstream marker Nodal. Compared to controls, in which these two markers are always left-sided, concanamycin induced aberrant sidedness of Shh expression in 67% and Nodal in 24% of embryos. Thus, as in Xenopus, H^+-V-ATPase is upstream of the known asymmetric gene cascade, and is required for normal LR patterning in chicks.
To perform a pharmacological screen on chick embryos with minimal disturbance to normal morphogenesis, we optimized a chicken in ovo culture system. A small hole was made on the top of each egg (prior to incubation), and 5 ml of light albumin was removed. […]. Eggs were securely wrapped with Scotch tape, incubated at 37.5° C. to the desired stages, then fixed for analysis of laterality markers by in situ hybridization.
Whole mount in situ hybridization (WISH) on Xenopus was performed according to standard methods. DNA used to transcribe in situ hybridization probes were XNr-1 (Lohr et al., 1998, Developmental Genetics 23: 194-202; Lowe et al., 1996, Nature 381: 158-161); cShh (Levin et al., 1995, Cell 82: 803-814); cNodal (Levin et al., 1995, Cell 82: 803-814).

Xenopus embryos = format: in vivo; conditions: treated from fertilization to stage 7; organs scored at stage 45
Dugesia japonica = experiment: Planarian regeneration, anterior-posterior phenotype (anteriorizing index) under GJC inhibition; format: in vivo
Method: Regenerating worms were contacted with the compound at an early stage of regeneration (2 days after cutting). 1-10 μM heptanol was dissolved in the medium. […] At 7 days post-cutting, we assayed the worms for the morphology of blastemas.
We next sought to ascertain whether the anteriorizing effect was dependent on the AP (anterior-posterior) level from which the fragment originated. Worms were amputated at four levels to make five body fragments: head, pre-pharyngeal, trunk (including the pharynx), post-pharyngeal and tail fragments.
The asexual clonal strain GI of the planarian, Dugesia japonica, was used in these study. In all experiments, the worms were starved for 1 week before use.
Intact worms 1-1.5 cm long were put into heptanol (or hexanol) solution (0.0045-0.006% vigorously vortexed into spring water) immediately prior to amputation to equilibrate the worms with the drug solution. The worms were amputated at four levels to generate the head, pre-pharyngeal, trunk (or “pharyngeal”), post-pharyngeal, and tail fragments. Worm fragments were incubated at 22° C. for 2 days. The heptanol solution was exchanged for fresh solution every day. The worms were then washed with water twice and incubated in worm water for 14-20 days to monitor the phenotypes.
We developed a quantitative scheme allowing comparison of degree of anteriorization among groups of worms. Each worm was scored on the following scale by observing the posterior blastema: 0 points—normal (a normal worm with a fully-patterned tail), 1 point—weak anteriorization of posterior blastema (missing tail or bipolar pharynx), 2 points—stronger anteriorization of posterior blastema (incomplete ectopic head with eye structures), or 3 points—complete anteriorization of posterior blastema (bipolar head, where the ectopic head has complete development with 2 normal eyes). For each group of worms, we calculated an average score that is the sum of all scores for the worms divided by the total number of worms. For convenience, the index was scaled from 0 to 100 (final index=average score*100/3). On this scale, a group of worms that were all normal would score 0, while a group of worms all of which were fully double-head would score 100. This scheme was focused on ascertaining the extent of anteriorization as judged by external morphology.

Compound | effect on rate or extent of tail regeneration [1] | other results
O=C(O)c1c2ccccc2cc2ccccc12 [9-anthracene-carboxylic acid] | no effect | 
CC1(C)[C@@H](O)CC[C@]2(C)[C@H]3C(=O)C=C4[C@@H]5C[C@@](C)(C(=O)O)CC[C@]5(C)CC[C@@]4(C)[C@]3(C)CC[C@@H]12 [18-β-glycyrrhetinic acid] | no effect | 
[Ba+2].[Cl-].[Cl-] [BaCl] | absence of regeneration | 
C(=NC1CCCCC1)=NC1CCCCC1 [DCCD] |  | expression of Shh and Nodal (sidedness) [2]: randomized
CCN(c1nc(N)c(C(=O)NC(=N)N)nc1Cl)C(C)C [EIPA, Ethylisopropyl amiloride] | no effect | 
O=C1CCC(N2Cc3ccccc3C2=O)C(=O)N1 (centres unmarked) [EM12] | no effect | 
Cc1nc2c(OCc3ccccc3)cccn2c1CC#N [SCH28080] | no effect | 
COc1ccc2c(c1OC)CN1CCc3cc4c(cc3C1C2)OCO4 (centres unmarked) [THB, Tetrahydroberberine] | no effect | 
N=C(N)NC(=O)c1nc(Cl)c(N)nc1N [amiloride] | no effect | 
CO/C1=C\C(C)=C\[C@@H](C)[C@@H](O)[C@@H](C)C/C(C)=C/C=C/[C@H](OC)[C@@H]([C@@H](C)[C@@H](O)[C@H](C)[C@@]2(O)C[C@@H](O)[C@H](C)[C@@H](C(C)C)O2)OC1=O [bafilomycin] |  | heterotaxia, % of the embryos (Xenopus embryos): 36%
CC1=NS(=O)(=O)c2cc(Cl)ccc2N1 [diazoxide] | no effect | 
COc1ccc(Cl)cc1C(=O)NCCc1ccc(S(=O)(=O)NC(=O)NC2CCCCC2)cc1 [glibenclamide] | no effect | 
CCCCCCCO [heptanol] | no effect | toxicity to the worms (Dugesia japonica; 1-10 μM): not toxic; trunk fragments with anteriorization of both blastemas (Dugesia japonica; 1-10 μM in the medium, scored 7 days post-cutting): 43%; complete bipolar heads (Dugesia japonica; 1-10 μM, trunk fragments): 16%
CCCCCCO [hexanol] |  | strong anteriorization of the posterior blastema (Dugesia japonica; in vivo): never induced strong anteriorization; tail regeneration (Dugesia japonica; in vivo): did inhibit tail regeneration
C[C@@H]1O[C@@H](O[C@H]2C[C@@H](O)[C@]3(CO)[C@H]4[C@H](O)C[C@]5(C)[C@@H](C6=CC(=O)OC6)CC[C@]5(O)[C@@H]4CC[C@]3(O)C2)[C@H](O)[C@H](O)[C@H]1O [ouabain] | no effect | 
CCOC(=O)c1cccc(N)c1 [tricaine] | absence of regeneration | 
